Tests used:
human EGF-R = biological target: T1, human EGF-R (Homo sapiens, UniProt P00533); test: Inhibition of EGF-dependent proliferation of F/L-HERc cells; format: cell-based; conditions: F/L-HERc cells (murine IL-3-dependent line expressing human EGF-R), stimulated with EGF 20 ng/ml, 48 hours, Cell Titer 96 AQueous assay
T1 construct: expressed in transfected cells; host or cells: F/L-HERc (murine IL-3-dependent FDC-P1 cells transduced with retroviral vector LXSN carrying the human EGF-R cDNA; packaging line GP+E86)
Source text: A cell line of murine origin dependent on interleukin-3-(IL-3) which was genetically modified to express functional human EGF-R was used here. The proliferation of these cells known as F/L-HERc can therefore be stimulated either by murine IL-3 or by EGF (cf. von Rüden, T. et al. in EMBO J. 7, 2749-2756 (1988) and Pierce, J. H. et al. in Science 239, 628-631 (1988)).
The starting material used for the F/L-HERc cells was the cell line FDC-P1, the production of which has been described by Dexter, T. M. et al. in J. Exp. Med. 152, 1036-1047 (1980). Alternatively, however, other growth-factor-dependent cells may also be used (cf. for example Pierce, J. H. et al. in Science 239, 628-631 (1988), Shibuya, H. et al. in Cell 70, 57-67 (1992) and Alexander, W. S. et al. in EMBO J. 10, 3683-3691 (1991)). For expressing the human EGF-R cDNA (cf. Ullrich, A. et al. in Nature 309, 418-425 (1984)) recombinant retroviruses were used as described by von Rüden, T. et al., EMBO J. 7, 2749-2756 (1988), except that the retroviral vector LXSN (cf. Miller, A. D. et al. in BioTechniques 7, 980-990 (1989)) was used for the expression of the EGF-R cDNA and the line GP+E86 (cf. Markowitz, D. et al. in J. Virol. 62, 1120-1124 (1988)) was used as the packaging cell.
The test was performed as follows:
F/L-HERc cells were cultivated in RPMI/1640 medium (BioWhittaker), supplemented with 10% foetal calf serum (FCS, Boehringer Mannheim), 2 mM glutamine (BioWhittaker), standard antibiotics and 20 ng/ml of human EGF (Promega), at 37° C. and 5% CO2. In order to investigate the inhibitory activity of the compounds according to the invention, 1.5×10^4 cells per well were cultivated in triplicate in 96-well dishes in the above medium (200 μl), the cell proliferation being stimulated with either EGF (20 ng/ml) or murine IL-3. The IL-3 used was obtained from culture supernatants of the cell line X63/0 mIL-3 (cf. Karasuyama, H. et al. in Eur. J. Immunol. 18, 97-104 (1988)). The compounds according to the invention were dissolved in 100% dimethylsulphoxide (DMSO) and added to the cultures in various dilutions, the maximum DMSO concentration being 1%. The cultures were incubated for 48 hours at 37° C.
In order to determine the inhibitory activity of the compounds according to the invention the relative cell number was measured in O.D. units using the Cell Titer 96™ AQueous Non-Radioactive Cell Proliferation Assay (Promega). The relative cell number was calculated as a percentage of the control (F/LHERc cells without inhibitor) and the concentration of active substance which inhibits the proliferation of the cells by 50% (IC50) was derived therefrom.

T1 sequence (P00533 25-1210): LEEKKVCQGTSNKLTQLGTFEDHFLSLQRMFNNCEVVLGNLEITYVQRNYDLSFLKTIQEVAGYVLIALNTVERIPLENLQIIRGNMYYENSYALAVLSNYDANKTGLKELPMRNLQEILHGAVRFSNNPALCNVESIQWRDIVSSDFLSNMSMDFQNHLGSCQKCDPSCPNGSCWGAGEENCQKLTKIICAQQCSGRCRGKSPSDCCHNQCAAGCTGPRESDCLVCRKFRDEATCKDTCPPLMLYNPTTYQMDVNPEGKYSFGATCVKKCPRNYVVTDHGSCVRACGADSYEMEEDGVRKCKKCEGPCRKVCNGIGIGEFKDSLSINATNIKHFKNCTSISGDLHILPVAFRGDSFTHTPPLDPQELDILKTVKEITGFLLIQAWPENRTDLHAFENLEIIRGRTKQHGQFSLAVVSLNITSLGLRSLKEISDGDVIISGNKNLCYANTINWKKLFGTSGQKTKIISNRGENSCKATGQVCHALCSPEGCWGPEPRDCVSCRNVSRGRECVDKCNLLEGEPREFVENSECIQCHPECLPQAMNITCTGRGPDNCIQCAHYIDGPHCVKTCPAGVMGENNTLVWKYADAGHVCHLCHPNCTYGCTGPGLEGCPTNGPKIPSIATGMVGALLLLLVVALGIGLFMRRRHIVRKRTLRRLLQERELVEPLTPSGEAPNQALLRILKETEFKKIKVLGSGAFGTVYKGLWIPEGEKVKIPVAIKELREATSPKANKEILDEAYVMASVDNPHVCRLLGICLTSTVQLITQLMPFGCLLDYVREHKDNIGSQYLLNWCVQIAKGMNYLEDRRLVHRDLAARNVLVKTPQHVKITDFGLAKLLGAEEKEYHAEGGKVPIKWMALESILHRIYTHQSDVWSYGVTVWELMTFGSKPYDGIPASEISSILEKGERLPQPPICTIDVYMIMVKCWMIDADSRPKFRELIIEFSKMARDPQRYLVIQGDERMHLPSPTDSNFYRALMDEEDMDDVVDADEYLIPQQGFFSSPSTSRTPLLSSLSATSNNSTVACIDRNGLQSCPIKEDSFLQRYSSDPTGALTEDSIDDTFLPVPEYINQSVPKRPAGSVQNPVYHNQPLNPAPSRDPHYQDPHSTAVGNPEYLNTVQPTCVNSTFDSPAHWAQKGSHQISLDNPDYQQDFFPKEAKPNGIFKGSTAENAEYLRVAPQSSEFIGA

| Structure (SMILES) | IC50 (human EGF-R) [nM] | melting point [°C] |
| --- | --- | --- |
| CC1(C)CN(CCOc2cc3ncnc(Nc4ccc(F)c(Cl)c4)c3cc2OCC2CC2)CC(=O)O1 [1(1), 4-[(3-Chloro-4-fluorophenyl)amino]-6-cyclopropylmethoxy-7-[2-(6,6-dimethyl-2-oxo-morpholin-4-yl)-ethoxy]-quinazoline] | 29 |  |
| CC1(C)CN(CCCOc2cc3c(Nc4ccc(F)c(Cl)c4)ncnc3cc2OC2CCC2)CC(=O)O1 [1(2), 4-[(3-Chloro-4-fluorophenyl)amino]-7-cyclobutyloxy-6-[3-(6,6-dimethyl-2-oxo-morpholin-4-yl)-propyloxy]-quinazoline] | 29 | 212 to 214 |
| CN(CCOc1cc2ncnc(Nc3ccc(F)c(Cl)c3)c2cc1OC1CCCC1)C1COC(=O)C1 (centres unmarked) [2(1), 4-[(3-Chloro-4-fluorophenyl)amino]-6-cyclopentyloxy-7-{2-[N-(2-oxo-tetrahydrofuran-4-yl)-N-methyl-amino]-ethoxy}-quinazoline] | 36 |  |
| COc1cc2ncnc(Nc3ccc(F)c(Cl)c3)c2cc1OCCN1CC(=O)O[C@@H](C)C1 [3(25), 4-[(3-Chloro-4-fluorophenyl)amino]-6-[2-((S)-6-methyl-2-oxo-morpholin-4-yl)-ethoxy]-7-methoxy-quinazoline] |  | 212 to 213 |
| CC1(C)CN(CCOc2cc3ncnc(Nc4ccc(F)c(Cl)c4)c3cc2OCC2CCCC2)CC(=O)O1 [Example 1, 4-[(3-Chloro-4-fluorophenyl)amino]-6-cyclopentylmethoxy-7-[2-(6,6-dimethyl-2-oxo-morpholin-4-yl)-ethoxy]-quinazoline] | 59 |  |
| CN(CCCOc1cc2c(Nc3ccc(F)c(Cl)c3)ncnc2cc1OC1CCC1)C1COC(=O)C1 (centres unmarked) [Example 2(2), 4-[(3-Chloro-4-fluorophenyl)amino]-6-{3-[N-(2-oxo-tetrahydrofuran-4-yl)-N-methyl-amino]-propyloxy}-7-cyclobutyloxy-quinazoline] |  | 147.5 to 151 |
| COc1cc2ncnc(Nc3cccc(Br)c3)c2cc1OCCN1CC(=O)O[C@H](C)C1 [Example 3(1), 4-[(3-Bromo-phenyl)amino]-6-[2-((R)-6-methyl-2-oxo-morpholin-4-yl)-ethoxy]-7-methoxy-quinazoline] |  | 193 |
| COc1cc2ncnc(Nc3ccc(F)c(Cl)c3)c2cc1OCCN1CC(=O)O[C@H](C)C1 [Example 3(2), 4-[(3-Chloro-4-fluorophenyl)amino]-6-[2-((R)-6-methyl-2-oxo-morpholin-4-yl)-ethoxy]-7-methoxy-quinazoline] |  | 208 |
| C[C@@H]1CN(CCCOc2cc3c(Nc4ccc(F)c(Cl)c4)ncnc3cc2OC2CCC2)CC(=O)O1 [Example 3(6), 4-[(3-Chloro-4-fluorophenyl)amino]-6-[3-((R)-6-methyl-2-oxo-morpholin-4-yl)-propyloxy]-7-cyclobutyloxy-quinazoline] |  | 185.5 to 189.5 |
| CC1(C)COC(=O)CN1CCCOc1cc2c(Nc3ccc(F)c(Cl)c3)ncnc2cc1OC1CCC1 [Example 3(7), 4-[(3-Chloro-4-fluorophenyl)amino]-6-[3-(5,5-dimethyl-2-oxo-morpholin-4-yl)-propyloxy]-7-cyclobutyloxy-quinazoline] |  | 214 to 216 |
| C[C@@H]1CN(CCCOc2cc3c(Nc4ccc(F)c(Cl)c4)ncnc3cc2OCC2CC2)CC(=O)O1 [Example 3(8), 4-[(3-Chloro-4-fluorophenyl)amino]-6-[3-((R)-6-methyl-2-oxo-morpholin-4-yl)-propyloxy]-7-cyclopropylmethoxy-quinazoline] |  | 160.5 to 163 |
| C[C@H]1CN(CCCOc2cc3c(Nc4ccc(F)c(Cl)c4)ncnc3cc2OCC2CC2)CC(=O)O1 [Example 3(9), 4-[(3-Chloro-4-fluorophenyl)amino]-6-[3-((S)-6-methyl-2-oxo-morpholin-4-yl)-propyloxy]-7-cyclopropylmethoxy-quinazoline] |  | 160 to 162 |
| C[C@@H]1CN(CCOc2cc3c(Nc4ccc(F)c(Cl)c4)ncnc3cc2OC2CCCC2)CC(=O)O1 [Example 3(11), 4-[(3-Chloro-4-fluorophenyl)amino]-6-[2-((R)-6-methyl-2-oxo-morpholin-4-yl)-ethoxy]-7-cyclopentyloxy-quinazoline] |  | 176 to 178 |
| COc1cc2ncnc(Nc3ccc(F)c(Cl)c3)c2cc1OCCCN1CC(=O)O[C@@H](C)C1 [Example 3(23), 4-[(3-Chloro-4-fluorophenyl)amino]-6-[3-((S)-6-methyl-2-oxo-morpholin-4-yl)-propyloxy]-7-methoxy-quinazoline] |  | 183 to 186 |
| COc1cc2ncnc(Nc3ccc(F)c(Cl)c3)c2cc1OCCN(CC(=O)O)C[C@H](C)O [Example 3(26), 4-[(3-Chloro-4-fluorophenyl)amino]-6-{2-[N-(carboxymethyl)-N-((S)-2-hydroxy-propyl)-amino]-ethoxy}-7-methoxy-quinazoline] |  | 187 to 190 |
| COc1cc2ncnc(Nc3ccc(F)c(Cl)c3)c2cc1OCCN1CC(=O)OC(C)(C)C1 [Example 3(27), 4-[(3-Chloro-4-fluorophenyl)amino]-6-[2-(6,6-dimethyl-2-oxo-morpholin-4-yl)-ethoxy]-7-methoxy-quinazoline] |  | 229 to 232 |
| CC1(C)CN(CCOc2cc3c(Nc4ccc(F)c(Cl)c4)ncnc3cc2O[C@@H]2CCOC2)CC(=O)O1 [Example 3(28), 4-[(3-chloro-4-fluorophenyl)amino]-6-[2-(6,6-dimethyl-2-oxo-morpholin-4-yl)-ethoxy]-7-((R)-tetrahydrofuran-3-yloxy)-quinazoline] |  | 195 to 196 |
| CC1(C)CN(CCOc2cc3c(Nc4ccc(F)c(Cl)c4)ncnc3cc2OC[C@H]2CCCO2)CC(=O)O1 [Example 3(29), 4-[(3-chloro-4-fluorophenyl)amino]-6-[2-(6,6-dimethyl-2-oxo-morpholin-4-yl)-ethoxy]-7-[(R)-(tetrahydrofuran-2-yl)methoxy]-quinazoline] |  | 184 |
| CC1(C)CN(CCOc2cc3ncnc(Nc4ccc(F)c(Cl)c4)c3cc2O[C@H]2CCOC2)CC(=O)O1 [Example 3(30), 4-[(3-chloro-4-fluorophenyl)amino]-7-[2-(6,6-dimethyl-2-oxo-morpholin-4-yl)-ethoxy]-6-((S)-tetrahydrofuran-3-yloxy)-quinazoline] |  | 202 to 205 |
| CC1(C)CN(CCOc2cc3ncnc(Nc4ccc(F)c(Cl)c4)c3cc2OC[C@@H]2CCCO2)CC(=O)O1 [Example 3(31), 4-[(3-chloro-4-fluorophenyl)amino]-7-[2-(6,6-dimethyl-2-oxo-morpholin-4-yl)-ethoxy]-6-[(S)-(tetrahydrofuran-2-yl)methoxy]-quinazoline] |  | 182 |
| COc1cc2ncnc(Nc3cccc(Br)c3)c2cc1OCCN1CC(=O)O[C@@H](C)C1 [Example 3, 4-[(3-Bromo-phenyl)amino]-6-[2-((S)-6-methyl-2-oxo-morpholin-4-yl)-ethoxy]-7-methoxy-quinazoline] |  | 190 |
| COc1cc2ncnc(Nc3cccc(Br)c3)c2cc1OCCN(CC(=O)OC(C)(C)C)C[C@@H](C)O [Example 4(1), 4-[(3-Bromo-phenyl)amino]-6-(2-{N-[(tert.butyloxycarbonyl)methyl]-N-((R)-2-hydroxy-propyl)-amino}-ethoxy)-7-methoxy-quinazoline] |  | 130 |

Source: patent publication US6656946B2, “Aminoquinazolines which inhibit signal transduction mediated by tyrosine kinases” (Boehringer Ingelheim Pharma KG, priority 2000, dated 2003)
